# In patent US8653102B2, “Substituted 2-oxo- and 2-thioxo-dihydroquinoline-3-carboxamides as KCNQ2/3 modulators” (Gruenenthal GmbH, priority 2010, dated 2014):
# Biological target: T1, KCNQ2/3 channels (Homo sapiens, UniProt O43525+O43526)
# T1 construct: expressed in transfected cells; host or cells: CHO-K1 cells kept under selection antibiotics
# Experiment: Fluorescence assay using a voltage sensitive dye (fluorimetry)
# Assay type: cell-based
# Conditions: CHO-K1 cells expressing KCNQ2/3 channels; for Emax: relative to retigabine (RTG) = 100%, read-out: Fluorimetry % efficacy (RTG = 100%)
# Procedure: Pharmacological Experiments Method I. Fluorescence Assay Using a Voltage Sensitive Dye (Fluorimetry)
# […] CHO-K1 cells expressing KCNQ2/3 channels are cultivated adherently at 37° C., 5% CO2 and 95% humidity in cell culture bottles (e.g. 80 cm^2 TC flasks, Nunc) with DMEM-high glucose (Sigma Aldrich, D7777) including 10% FCS (PAN Biotech, e.g. 3302-P270521) or alternatively MEM Alpha Medium (1×, liquid, Invitrogen, #22571), 10% fetal calf serum (FCS) (Invitrogen, #10270-106, heat-inactivated) and the necessary selection antibiotics.
# Before being sown out for the measurements, the cells are washed with 1×DPBS buffer Ca^2+/Mg^2+-free (e.g. Invitrogen, #14190-094) and detached from the bottom of the culture vessel by using Accutase (PAA Laboratories, #L11-007) (incubation with Accutase for 15 min at 37° C.). The cell number is determined using a CASY™ cell counter (TCC, Schärfe System). Depending on the optimal density for each individual cell line, 20,000-30,000 cells/well/100 μl are seeded onto 96-well Corning™ CellBIND™ assay plates (Flat Clear Bottom Black Polystyrene Microplates, #3340). Freshly seeded cells are then left to settle for one hour at room temperature, followed by incubation for 24 hours at 37° C., 5% CO2 and 95% humidity.
# The voltage-sensitive fluorescent dye from the Membrane Potential Assay Kit (Red™ Bulk format part R8123 for FLIPR, MDS Analytical Technologies™) is prepared by dissolving the contents of one vessel Membrane Potential Assay Kit Red Component A in 200 ml of extracellular buffer (ES buffer, 120 mM NaCl, 1 mM KCl, 10 mM HEPES, 2 mM CaCl2, 2 mM MgCl2, 10 mM glucose; pH 7.4). After removal of the nutrient medium, the cells are washed once with 200 μl of ES buffer, then loaded for 45 min at room temperature in 100 μl of dye solution in the dark.
# Fluorescence measurements are carried out in a BMG Labtech FLUOstar™, BMG Labtech NOVOstar™ or BMG Labtech POLARstar™ instrument (525 nm excitation, 560 nm emission, Bottom Read mode). After incubation with the dye, 50 μl of the test substances in the desired concentrations, or 50 μl of ES buffer for control purposes, are applied to the wells of the assay plate and incubated for 30 min at room temperature while being shielded from light. The fluorescence intensity of the dye is then measured for 5 min and the fluorescence value F1 of each well is thus determined at a given, constant time. 15 μl of a KCl solution are then added to each well (final concentration of potassium ions 92 mM). The change in fluorescence intensity is subsequently monitored until all the relevant values have been obtained (mainly 5-30 min). At a given time post KCl application, a fluorescence value F2 is determined, in this case at the time of the fluorescence peak.
# For calculation, the fluorescence intensity F2 is corrected for the fluorescence intensity F1, and the activity (ΔF/F) of the target compound on the potassium channel is determined as follows:
# In order to determine whether a substance has agonistic activity,
# A substance has an agonistic activity on the potassium channel if
# [formula] increases dose dependently.
# Calculations of EC50 and IC50 values are carried out with the aid of ‘Prism v4.0’ software (GraphPad Software™).
Structure (SMILES),EC50 [µM],Emax [%]
"Cc1c(C(=O)NCCCC(C)(C)C)c(=O)n(C)c2cc(C(F)(F)F)ccc12 [Example 25, N-(4,4-dimethyl-pentyl)-1,4-dimethyl-2-oxo-7-(trifluoromethyl)-1H-quinoline-3-carboxylic acid amide]",0.068,258
"COCCn1c(=O)c(C(=O)NCc2cccc(F)c2)c(C)c2ccc(C#N)cc21 [Example 22, 7-cyano-N-[(3-fluorophenyl)-methyl]-1-(2-methoxy-ethyl)-4-methyl-2-oxo-1H-quinoline-3-carboxylic acid amide]",3.14,102
"Cc1c(C(=O)NCc2cccc(F)c2)c(=O)n(C)c2ccccc12 [Example 9, N-[(3-fluorophenyl)-methyl]-1,4-dimethyl-2-oxo-1H-quinoline-3-carboxylic acid amide]",5.69,63
"CCC(Cn1c(=O)c(C(=O)NCc2cccc(F)c2)c(C)c2ccc(C(F)(F)F)cc21)OC (stereo not shown) [Example 32, N-[(3-fluorophenyl)-methyl]-1-(2-methoxy-butyl)-4-methyl-2-oxo-7-(trifluoromethyl)-1H-quinoline-3-carboxylic acid amide]",,26
"COCC(C)n1c(=O)c(C(=O)NCc2cccc(F)c2)c(C)c2ccc(C(F)(F)F)cc21 (stereo not shown) [Example 35, N-[(3-fluorophenyl)-methyl]-1-(2-methoxy-1-methyl-ethyl)-4-methyl-2-oxo-7-(trifluoromethyl)-1H-quinoline-3-carboxylic acid amide]",0.114,118
"Cc1c(C(=O)NCc2cccc(F)c2)c(=O)n(CCO)c2cc(C(F)(F)F)ccc12 [Example 38, N-[(3-fluorophenyl)-methyl]-1-(2-hydroxy-ethyl)-4-methyl-2-oxo-7-(trifluoromethyl)-1H-quinoline-3-carboxylic acid amide]",1.83,160
"Cc1c(C(=O)NCc2cccc(F)c2)c(=O)n(C)c2cc(OC(F)(F)F)ccc12 [Example 33, N-[(3-fluorophenyl)-methyl]-1,4-dimethyl-2-oxo-7-(trifluoromethyloxy)-1H-quinoline-3-carboxylic acid amide]",0.386,138
"CCCCCn1c(=O)c(C(=O)NCc2cccc(F)c2)c(C)c2ccc(C(F)(F)F)cc21 [Example 41, N-[(3-fluorophenyl)-methyl]-4-methyl-2-oxo-1-pentyl-7-(trifluoromethyl)-1H-quinoline-3-carboxylic acid amide]",,18
"CCn1c(=O)c(C(=O)NCc2cccc(F)c2)c(C)c2ccc(C(F)(F)F)cc21 [Example 5, 1-ethyl-N-[(3-fluorophenyl)-methyl]-4-methyl-2-oxo-7-(trifluoromethyl)-1H-quinoline-3-carboxylic acid amide]",0.381,173
"Cc1c(C(=O)NCc2cccc(F)c2)c(=O)n(C2CCOCC2)c2cc(C(F)(F)F)ccc12 [Example 44, N-[(3-fluorophenyl)-methyl]-4-methyl-2-oxo-1-tetrahydro-pyran-4-yl-7-(trifluoromethyl)-1H-quinoline-3-carboxylic acid amide]",,36
"COCCCn1c(=O)c(C(=O)NCc2cccc(F)c2)c(C)c2ccc(C(F)(F)F)cc21 [Example 14, N-[(3-fluorophenyl)-methyl]-1-(3-methoxy-propyl)-4-methyl-2-oxo-7-(trifluoromethyl)-1H-quinoline-3-carboxylic acid amide]",0.992,61
